Laboratory results reported in PMC11794677, “Self‐Assembly of a Conjugate of Lipoic Acid With a Collagen‐Stimulating Pentapeptide Showing Cytocompatibility and Wound Healing Properties, and Chemical and Photolytic Disassembly” (Journal of Peptide Science, 2025).

Columns and labels:
[1] = SANS form factor fits (core-shell cylinder); format: physicochemical; settings: 3 wt% in D2O, 25°C, long cylindrical shell form factor; note: values in Å
Experimental: Measurements were performed using the LOQ instrument at ISIS Neutron and Muon Source, Oxfordshire, UK. LOQ operates in time‐of‐flight mode, with a wavelength range from 2.7 to 10.5 Å. Two detectors recorded simultaneously small and wide scattering merged in a typical range of wavenumbers q = 0.006 Å^−1 to 1.2 Å^−1. The main detector was fixed at 4 m from the sample, and the size of the beam was 8 mm diameter at the sample position. The samples were placed in quartz cuvettes and arranged on a multislot sample changer with temperature controlled by a thermal bath at 25°C. The background was subtracted and the scattering intensity normalized to the absolute scale cross calibrating with a polystyrene standard. Data reduction was performed using Mantid.
Cryo‐TEM was used to probe potential aggregation in solution above the CAC (3 wt% aqueous solution). […] The presence of such structures was also confirmed by SAXS and SANS data (Figure 3), which reveal form factor features that can be fitted using a core‐shell cylinder form factor, consistent with extended fibril structures. The cylinder radius is 25 Å, which is approximately equal to the estimated length of the molecule considering the lipid chain plus a pentapeptide in a β‐sheet conformation. […]

[2] = Chemical reduction with TCEP, effect on self-assembled structures; format: physicochemical; settings: 3 wt% with 2.6 wt% TCEP, SAXS and SANS; cryo-TEM 1 wt% + 0.37 wt% TCEP
From the text: The ring‐opening of the lipoyl moiety can be achieved under reductive conditions. We examined the effect of chemical reduction on the self‐assembled structures of lipoyl‐KTTKS using TCEP [tris(2‐carboxyethyl)phosphine] as reductant. […] The SAXS data in Figure 3a show a considerable reduction in scattering intensity after addition of TCEP and the SANS profile in Figure 3b is barely above background after addition of TCEP. The SAXS data can be described using a form factor for monomer scattering with a power‐law intensity function at low q to account for a small fraction of irregular aggregates. The disruption of the fibrils upon TCEP addition was also confirmed by cryo‐TEM (images shown in Figure S1) because no aggregate structures were observed after addition of TCEP. Circular dichroism (CD) spectra shown in Figure 4 are characterized by a negative minimum in the CD spectrum at 196 nm along with the absence of defined features at higher wavelength, characteristic of a primarily disordered conformation. […] This is consistent with the observation that lipoyl‐KTTKS forms fibril‐like structures above a CAC detected by ThT binding to β‐sheet structure and as observed by cryo‐TEM, SAXS and SANS. […]

[3] = UV exposure / photodegradation, UV-vis absorbance at 333 nm; format: physicochemical; settings: UV lamp 365 nm for 1 h, 0.1 wt% solution, read 24 h after irradiation
Experimental: To investigate the effect of UV exposure on lipoyl‐KTTKS the peptide powder was irradiated using a 4W UVGL‐25 lamp (Analytik Jena, Germany) at a wavelength of 365 nm for 1 h. The absorbance was tracked at 333 nm before, just after exposure and 24 h after exposure using a nanodrop spectrometer (Thermo‐Fisher Scientific). The full spectra were also collected using a Varian Cary Bio 300 UV‐vis (Cary).
Lipoic acid is susceptible to photolysis upon exposure to UV light. Photodegradation of lipoyl‐KTTKS was studied via UV‐vis, FTIR and CD spectroscopy and degradation products were analysed by electrospray ionisation‐mass spectroscopy (ESI‐MS). Photolysis was induced by exposure to UV for 1 h using a UV lamp with 365‐nm radiation. Lipoic acid presents a characteristic weak band at 333 nm that is related to the hindered dithiolane ring, that can be broken by UV irradiation. The absorbance of lipoyl‐KTTKS (0.1 wt% solution) before irradiation, just after and 24 h after irradiation to evaluate the recovery of the dithiolane ring is shown in Figure 5. […] The UV exposure disrupts the dithiolane ring, as reflected also in the FTIR spectrum (Figure S2), with the suppression of bands ν(S‐S) at 519 and 438 cm^−1 and ν(C‐S) at 721 cm^−1 [48, 49].

[4] = test system: HDFa cells; assay: MTT cytocompatibility assay; format: cell-based, Human; settings: 72 h incubation, concentrations up to 0.1 wt%, absorbance 560 nm, ANOVA, n = 3
Experimental: For the cytocompatibility assays, HDFa cells were cultivated in DMEM/F12 supplemented with 5% FBS, Glutamax, penicillin/streptomycin 100 IU/mL and incubated at 37°C within an atmosphere of 5% CO2. The RAW cells were cultured in DMEM with 10% FBS, Glutamax, penicillin/streptomycin 100 IU/mL and maintained under the same conditions as the HDFa cells.
To measure the cytocompatibility of lipoyl‐KTTKS, 24 h before the assay HDFa cells were cultivated in 96‐well plates with 1 × 10^4 cells/well with supplemented DMEM/F12. Then, the wells were washed three times with PBS, and cells were incubated for 72 h in media containing different concentrations of lipoyl‐KTTKS. After incubation, the cells were washed again three times with PBS and 100 μL of DMEM/F12 without phenol red + 5 μg/mL of MTT was added to each well. The plate containing cells in media containing MTT was incubated for 4 h inside an incubator at 37°C, protected from the light. After incubation, 100 μL of DMSO was added to each well to solubilize the resulting formazan crystals. The absorbance was measured at 560 nm using an Infinite F50 microplate reader (TECAN, Switzerland).

Substance: lipoyl‐KTTKS [peptide amphiphile comprising a conjugate of lipoic acid to pentapeptide KTTKS]
- L length [1]: 800 Å
- t shell thickness [1]: 9.10 Å
- Effect of addition of TCEP on self-assembled structures [2]: disrupts the fibril structures
- Recovery of absorbance at 333 nm (dithiolane ring) after UV exposure [3]: incomplete recovery
- Cytotoxicity (cell viability, MTT) [4]: does not present any statistically significant cytotoxicity
